PubChem BioAssay AID549 (SRMLSC, 2006)
Activity calls are given as the source filed them.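 How the source made its calls: active means clearly stronger inhibition of phosphomevalonate kinase than of the coupling enzymes alone in a parallel counterscreen; inactive means the rest.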

biological target: phosphomevalonate kinase (Streptococcus pneumoniae D39); assay: S. pneumoniae PMK inhibitor potency, dose response, biochemical, mevalonate pathway, coupling enzyme counter-screen (AID 549); settings: PK/LDH coupled NADH absorbance 340 nm

Structure (SMILES)	outcome
COC(=O)c1cc(=O)nc2sccn12	inactive
CC1(C(=O)NC2CCCCCCC2)CCC(=O)N1Cc1ccco1 (stereo not drawn)	inactive
O=C(CCc1nc2ccccc2c(=O)[nH]1)OCC(=O)N1CCN(S(=O)(=O)c2ccccc2)CC1	inactive
CS(=O)(=O)N1CCN(C(=O)CCC2CCCC2)CC1	inactive
CCN1CCN(C(c2ccc(F)cc2)c2nnnn2Cc2cccs2)CC1 (stereo not drawn)	inactive
Cn1c(=O)c2c(-c3ccccc3)n(C3CCCCC3)cc2n(C)c1=O	inactive
COc1cc(-c2nnc(COc3ccc4ccccc4c3)o2)cc(OC)c1OC	inactive
CCOC(=O)C1=C(O)C(=O)N(c2ccc(S(N)(=O)=O)cc2)C1c1ccc(OC)cc1 (stereo not drawn)	inactive
Cc1nnc(SCc2ccccc2)n1N	inactive
COc1ccc(-n2c(SCc3nnc(-c4ccccc4)o3)nnc2-c2ccccc2)cc1	inactive
O=C1CC(c2ccccc2)CC(O)=C1C=NCC1CCCO1 (stereo not drawn)	inactive
O=C(CN(C(=O)CNS(=O)(=O)c1ccccc1)C1CCCC1)NCc1ccco1	inactive
Cn1c2ccccc2c2cnn(CC(=O)N3CCN(c4ncccn4)CC3)c(=O)c21	inactive
O=C(Nc1ccc(-c2noc(COc3ccccc3Cl)n2)cc1)c1ccco1	inactive
Cc1cc(OCC(=O)NCCO)cc(C)c1Cl	inactive
Cc1ccc(S(=O)(=O)N2CCN(c3nc(C(C)C)c4c(c3C#N)CC(C)(C)OC4)CC2)cc1	inactive
Cc1ccc(-n2nc3c(c2NC(=O)c2c(-c4ccccc4Cl)noc2C)CS(=O)(=O)C3)c(C)c1	inactive
COc1ccccc1CN(Cc1cc2cc(C)cc(C)c2[nH]c1=O)Cc1nnnn1CC1CCCO1 (stereo not drawn)	inactive
COc1ccc(OCC(=O)N2CCN(c3nnc(-c4ccccc4)c4ccccc34)CC2)cc1	inactive
CN(C)c1ccc(-c2nc3ccccc3n2C)cc1	inactive
Cc1cc2c(C(F)(F)F)cc(=O)oc2c2c1NCCC2	inactive
N#Cc1cccc(CSc2nnc(CCCO)n2-c2ccccc2)c1	inactive

Structure (SMILES)	outcome
CC(CC(=O)O)NCC1COc2ccccc2O1 (stereo not drawn)	inactive
OC1(CN2CCOCC2)C2CN3CCN(C2)CC1(c1ccccc1)C3 (stereo not drawn)	inactive
CNC(=O)C1CC(=O)N(Cc2ccc3c(c2)OCO3)C(=Nc2ccc(OC)cc2)S1 (stereo not drawn)	inactive
Cc1nn(Cc2ccccc2)c2c1C(c1ccncc1)C(C#N)=C(N)O2 (stereo not drawn)	inactive
Cc1ccccc1OCCCCc1c(C)n[nH]c1C	inactive
Cc1ccc(C)c(N(CC(=O)NC2CCCC2)C(=O)CCCC(=O)Nc2ccccn2)c1	inactive
CCOC(=O)N1CCC(NC(=O)CSc2cc(=O)n(C)c3ccccc23)CC1	inactive
COc1ccc(N2CCN(CCNS(=O)(=O)c3cccc4nsnc34)CC2)cc1	inactive
COc1ccc(NC(=O)N(C2CCCCC2)C(C)c2ccco2)c(OC)c1 (stereo not drawn)	inactive
COc1ccc(C2(C)NC(=O)N(Cc3cc(Cl)cc4c3OCOC4)C2=O)cc1OC (stereo not drawn)	inactive
COC(=O)c1cn(-c2ccccc2)nc1C(=O)OC	inactive
CCOC(=O)CSc1n[nH]c(-c2cccnc2)n1	inactive
COc1ccc(CNC(=O)C2CCN(S(=O)(=O)N3CCOCC3)CC2)cc1	inactive
O=C(Nc1cccc2ccccc12)c1cnccn1	inactive
Cc1cc(C)cc(CC2CC(=O)N(c3nc(C)cc(C)n3)C2=O)c1 (stereo not drawn)	inactive
COC(=O)c1nonc1NCn1nnc2ccccc21	inactive
O=c1c(-c2ccccc2)c(O)c2cccc3c2n1CCC3	inactive
Cn1nnnc1Sc1ncnc2scc(-c3ccc(F)cc3)c12	inactive
CC(C)OC(=O)C1C(=O)CC(C)(O)C(C(=O)OC(C)C)C1c1cccnc1 (stereo not drawn)	inactive
CCOc1ncccc1C(=O)OCc1cc(=O)n2c(n1)sc1ccccc12	inactive
COC(=O)[C@@H](NC(=O)N1CCN(c2cccc(C(F)(F)F)c2)CC1)C(C)C	inactive
CC(C)n1nnnc1SCC(=O)Nc1ccccc1N1CCOCC1	inactive

Structure (SMILES)	outcome
Cc1cc(C)n2c(SCC(=O)N(C)C3CCS(=O)(=O)C3)nnc2n1 (stereo not drawn)	inactive
CCOc1ccc(S(=O)(=O)NCCCN2CCOCC2)c2ccccc12	inactive
CCNc1nc(NC(C)(C)C)nc(N(C#N)CC)n1	inactive
COc1ccc2c(c1)OC1(C)CC2C(C(=O)c2ccccc2OC)C(=O)N1 (stereo not drawn)	inactive
CCOC(=O)c1c(NC(=O)c2cc(C3CC3)on2)sc2c1CCCC2	inactive
COc1ccc(CN2C(=O)c3ccccc3C2C(=O)NC2CCCC2)c(OC)c1 (stereo not drawn)	inactive
CN1CCc2c(sc3c2c(=O)n(-c2ccccc2)c2nnc(SCc4ccc(F)cc4)n32)C1	inactive
CCOC(=O)C1=C(NC(=O)c2ccc(Br)o2)Nc2ccccc2N=C1	inactive
CC(C)(C)NC(=O)CSc1nnc(-c2ccccn2)n1-c1ccccc1	inactive
CCS(=O)(=O)N1CCC(C(=O)NCCc2ccccc2)CC1	inactive
CCOC(=O)C1=C(C)NC(=O)NC1/C(C)=C/c1ccccc1 (stereo not drawn)	inactive
Cc1ccc(C(=O)c2cc3c(cc2N)OCCO3)cc1	inactive
Cc1noc(C)c1CSc1nnc(-c2ccncc2)n1-c1cccc(Cl)c1C	inactive
COC(=O)C1=C(C)OC(N)=C(C#N)C1c1cc(OC)c(OCC(N)=O)cc1Cl (stereo not drawn)	inactive
Cc1csc(C(C#N)C(=O)c2ccc(S(=O)(=O)N3CCCC3)cc2)n1 (stereo not drawn)	inactive
Cn1cnnc1SCC(=O)n1c2ccccc2c2ccccc21	inactive
O=C(NCC1CCCO1)C1CC(=O)N(C2CCCCCC2)C1 (stereo not drawn)	inactive
COCC(C)n1c(COc2ccccc2F)nnc1SCc1c(C)noc1C (stereo not drawn)	inactive
COc1ccc(Cn2nnnc2C(c2ccccn2)N2CCN(c3cc(Cl)ccc3C)CC2)cc1 (stereo not drawn)	inactive
CN1CC(=O)NC1=NC(=O)c1ccc(Cl)c(S(=O)(=O)N2CCCCCC2)c1	inactive
CCC(Sc1nccn1C)C(=O)Nc1cccc2ccccc12 (stereo not drawn)	inactive
Cc1cc(C)n2nc(SCC(=O)NCc3ccco3)nc2n1	inactive

Structure (SMILES)	outcome
CN(C(=O)C1CCOC1)c1nnc(C2CCOC2)s1 (stereo not drawn)	inactive
CCn1c(SCC(=O)Nc2ccc(Cl)cc2)nnc1C1CC1	inactive
CS(=O)(=O)N1CCCC(C(=O)N2CCOCC2)C1 (stereo not drawn)	inactive
CS(=O)(=O)N1CCCC(C(=O)NCc2ccccn2)C1 (stereo not drawn)	inactive
COCCCNC(=O)CN(C1CCCCC1)S(=O)(=O)c1ccc(C)cc1	inactive
Cn1c(SCC(=O)N2CCOCC2)nnc1-c1ccc(NC(=O)c2ccccc2F)cc1	inactive
O=C(CSc1nc(-c2ccccc2)cs1)N1CCN(C(=O)c2ccco2)CC1	inactive
CCc1nn(C(C)C(=O)NC(C)CCc2ccco2)c(=O)c2cc3occc3n12 (stereo not drawn)	inactive
Cc1cc(=O)n2[nH]c(-c3ccccc3Cl)cc2n1	inactive
Cc1occc1C(=O)Nc1nnc(C(F)(F)F)s1	inactive
C=CCNC(=O)C1CCCN(S(C)(=O)=O)C1 (stereo not drawn)	inactive
COc1ccc2c(c1OC)C(=O)OC2C1c2c(cc3c(c2OC)OCO3)CCN1C (stereo not drawn)	inactive
CCN(CC)C(=O)C1CCCN(C/C(C)=C/c2ccccc2)C1 (stereo not drawn)	inactive
CC(=O)N1CCc2cc(S(=O)(=O)NC3CCCc4ccccc43)ccc21 (stereo not drawn)	inactive
CCc1ccc(OCc2nnc(SCC(=O)NCc3ccco3)o2)cc1	inactive
CCn1c(COc2ccccc2C)nnc1SCC(=O)N1CCCCC1	inactive
COC(=O)C(NC(=O)c1ccccc1)=C1C=C(C)OC(C)=C1	inactive
COCCNC(=O)C(c1ccc(C)o1)N(Cc1ccc(OC)cc1)C(=O)Cn1nnc2ccccc21 (stereo not drawn)	inactive
CON(C)c1nc(OCCNC(=O)OCc2ccc(Cl)cc2Cl)nc(N(C)C)n1	inactive
c1cncc(C(c2nnnn2C2CCCC2)N2CCCC2)c1 (stereo not drawn)	inactive
Cc1ccsc1C1C(C(=O)O)c2ccccc2C(=O)N1C (stereo not drawn)	inactive
CCc1nnc(NC(=O)CSc2nnc(Cc3cccn3C)n2C)s1	inactive

Structure (SMILES)	outcome
COCCCNC(=O)c1ccc(N2CCCC2)c(NS(=O)(=O)c2ccc(C)cc2)c1	inactive
CCOc1ccc(Nc2nc(Cc3nnc(SCC(N)=O)o3)cs2)cc1	inactive
O=C(Nn1c(C2CC2)nc2ccccc2c1=O)c1ccco1	inactive
N=c1n(CCN2CCOCC2)c2ccccc2n1CC(=O)c1ccc(Cl)c(Cl)c1	inactive
COc1ccc(C(=O)Nc2cccc3c2C(=O)NC3=O)cc1S(=O)(=O)N1CCOCC1	inactive
COc1ccc(OC)c(CNC(=O)C2CCCN(c3nc4ccccc4o3)C2)c1 (stereo not drawn)	inactive
CCOc1cc(C#N)c(NC(=O)c2cccnc2)cc1OCC	inactive
Cc1csc(NC(=O)CN2CCCCCC2)n1	inactive
CCOC(=O)N1CCN(C(=O)Cn2nc(-c3ccc(Cl)cc3)ccc2=O)CC1	inactive
Cc1cccc(OCCCc2c(C)n[nH]c2C)c1	inactive
O=C(O)CCS(=O)(=O)Cc1ccccc1F	inactive
CNS(=O)(=O)c1cccc(C(=O)OC2CCCCC2=O)c1 (stereo not drawn)	inactive
Cc1nnc(SCC(=O)Nc2nsc(-c3ccccc3)n2)s1	inactive
O=C(NCc1ccccc1)C1C2C=CC3(CN(Cc4cccnc4)C(=O)C13)O2 (stereo not drawn)	inactive
Cc1cc(C)n2nc(SCc3cc(=O)n4c(C)cccc4n3)nc2n1	inactive
O=C(c1cc2nc(-c3ccco3)cc(C(F)(F)F)n2n1)N1CCc2ccccc2C1	inactive
N#Cc1c(N)sc(=S)c2c1CCN(Cc1ccccc1)C2	inactive
CC(OC(=O)c1cccs1)C(=O)NCC1CCCO1 (stereo not drawn)	inactive
COc1ccc2c(c1OC)CN(C)CCc1cc3c(cc1C(O)C2)OCO3 (stereo not drawn)	inactive
COc1cccc(CNC(=O)C2CCCN(c3nn4c(=O)cc(C)nc4s3)C2)c1 (stereo not drawn)	inactive
